Key:
[1] = biological target: T1, MRGPRX4-83S (Homo sapiens, UniProt Q96LA9, L83S); assay: Calcium assay (human glioblastoma LN229 cells expressing the MRGPRX4-83S); format: cell-based; parameters: LN229 glioblastoma cells natively expressing the MRGPRX4-83S; endogenous in cells; host or cells: LN229 human glioblastoma cells; details: for Emax: LN-229, efficacy based on 30 μM H-1 (set as 100%), read-out: Emax; for EC50: calcium mobilization, LN229 cells, MRGPRX4-83S, read-out: EC50 ± SEM
Protocol: For β-arrestin recruitment assays, recombinant Chinese hamster ovary (CHO) cells expressing the human MRGPRX4 were used (DiscoverX/Eurofins) which allowed to measure β-galactosidase complementation upon β-arrestin recruitment. For calcium mobilization assays, recombinant astrocytes expressing MRGPX4-83L, or LN229 glioblastoma cells natively expressing the MRGPRX4-83S, were used.
The assays were performed as previously described for other rhodopsin-like GPCRs (Müller, C.E.; 8-Benzamidochromen-4-one-2-carboxylic acids: potent and selective agonists for the orphan G protein-coupled receptor GPR35. J. Med. Chem. 2013, 56:5182-97; Müller, C.E. Molecular Recognition of Agonists and Antagonists by the Nucleotide-Activated G Protein-Coupled P2Y2 Receptor. J. Med. Chem. 2017, 60:8425-8440).

[2] = biological target: T2, human MRGPRX4-83L (Homo sapiens, UniProt Q96LA9); assay: β-arrestin assay (CHO β-arrestin ARMS1-ProLink 2 human MRGPRX4 83L); format: cell-based; details: Table 1; for Emax: efficacy based on maximal effect of 100 nM B-16 (set as 100%), read-out: Emax; for EC50: β-arrestin recruitment, CHO cells, MRGPRX4-83L, means of 3-4 experiments, read-out: EC50 ± SEM
T2 construct: host or cells: CHO β-arrestin cells
T2 sequence (Q96LA9 whole entry): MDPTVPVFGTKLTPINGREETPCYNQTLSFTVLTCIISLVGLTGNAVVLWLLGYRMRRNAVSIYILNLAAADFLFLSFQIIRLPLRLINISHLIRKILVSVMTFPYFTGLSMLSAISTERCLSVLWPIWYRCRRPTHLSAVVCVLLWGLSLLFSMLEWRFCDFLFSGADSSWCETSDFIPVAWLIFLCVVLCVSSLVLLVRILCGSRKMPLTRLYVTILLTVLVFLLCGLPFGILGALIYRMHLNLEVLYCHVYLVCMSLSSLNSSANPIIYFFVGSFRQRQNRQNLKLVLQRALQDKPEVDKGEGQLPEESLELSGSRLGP
Summary of the method: (§1)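 β-Galactosidase enzyme-fragment complementation in engineered CHO lines expressing human MRGPRX4 reported β-arrestin recruitment. Intracellular calcium was followed in astrocytes engineered with the 83L variant or in LN229 cells endogenously carrying the 83S variant.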

[3] = biological target: T2, human MRGPRX4-83L; assay: Calcium assay (human MRGPRX4 83L), recombinant astrocytes; format: cell-based; details: Table 1; for EC50: calcium mobilization, MRGPRX4-83L, read-out: EC50 ± SEM; for Emax: efficacy based on maximal effect of 1 μM B-16 (set as 100%), read-out: Emax
Summary of the method: as §1

[4] = biological target: T1, MRGPRX4-83S; assay: β-arrestin assay (CHO β-arrestin human MRGPRX4-83S); format: cell-based; parameters: host or cells: CHO β-arrestin cells; details: for Emax: efficacy based on 100 nM B-16 (set as 100%), read-out: Emax; for EC50: β-arrestin recruitment, CHO cells, MRGPRX4-83S, read-out: EC50 ± SEM
Summary of the method: as §1

T1 sequence (Q96LA9 whole entry L83S): as the sequence (Q96LA9 whole entry) above, with L83S counted along it

| Emax ([1]; Table 2) [%] | EC50 ([1]; Table 2) [nM] | Emax [2] [%] | EC50 [2] [nM] | EC50 [3] [nM] | Emax [3] [%] | Emax ([4]; Table 2) [%] | EC50 ([4]; Table 2) [nM] | melting point [°C] | value in brackets beside IC50 >10 ([2]; bracketed value ± spread in IC50 column, not defined, inhibition of 2.6 μM B-16) | IC50 ([2]; inhibition of the effect of 2.6 μM B-16) [nM] | Emax ([1]; Table 3) [%] | EC50 ([1]; Table 3) [nM] | Emax ([4]; Table 3) [%] | EC50 ([4]; Table 3) [nM] | IC50 [1] [nM] | Compound |
| --- | --- | --- | --- | --- | --- | --- | --- | --- | --- | --- | --- | --- | --- | --- | --- | --- |
| 118 | 63.1 ± 18.6 | 89 | 7940 ± 1450 | 601 ± 103 | 110 | 93 | 33.9 ± 5.1 | 154 to 156 | – | – | – | – | – | – | – | C#CCn1c(=O)c2[nH]c(CCc3cccc(F)c3)nc2n(CCCCP(=O)(O)O)c1=O [B-3, (4-(8-(3-Fluorophenethyl)-2,6-dioxo-1-(prop-2-yn-1-yl)-1,2,6,7-tetrahydro-3H-purin-3-yl)butyl)phosphonic acid] |
| 109 | 4.69 ± 1.58 | 103 | 2140 ± 850 | 80.8 ± 16.8 | 100 | 110 | 3.24 ± 1.16 | 240 to 242 | – | – | – | – | – | – | – | C#CCn1c(=O)c2[nH]c(CCc3cccc(Br)c3)nc2n(CCCCP(=O)(O)O)c1=O [B-4, (4-(8-(3-Bromophenethyl)-2,6-dioxo-1-(prop-2-yn-1-yl)-1,2,6,7-tetrahydro-3H-purin-3-yl)butyl)phosphonic acid] |
| 96 | 18.1 ± 1.5 | 99 | 15200 ± 520 | 492 ± 38 | 91 | 103 | 34.3 ± 7.6 | 244 to 246 | – | – | – | – | – | – | – | C#CCn1c(=O)c2[nH]c(CCc3cccc(C)c3)nc2n(CCCCP(=O)(O)O)c1=O [B-5, (4-(8-(3-Methylphenethyl)-2,6-dioxo-1-(prop-2-yn-1-yl)-1,2,6,7-tetrahydro-3H-purin-3-yl)butyl)phosphonic acid] |
| 150 | 38.2 ± 10.9 | 114 | 11900 ± 1800 | 267 ± 66 | 99 | 100 | 20.5 ± 2.4 | 223 to 226 | – | – | – | – | – | – | – | C#CCn1c(=O)c2[nH]c(CCc3cccc(C(F)(F)F)c3)nc2n(CCCCP(=O)(O)O)c1=O [B-6, (4-(2,6-Dioxo-1-(prop-2-yn-1-yl)-8-(3-(trifluoromethyl)phenethyl)-1,2,6,7-tetrahydro-3H-purin-3-yl)butyl)phosphonic acid] |
| 132 | 10.3 ± 1.3 | 103 | 3120 ± 1200 | 397 ± 32 | 108 | 101 | 8.94 ± 1.38 | 169 to 172 | – | – | – | – | – | – | – | C#CCn1c(=O)c2[nH]c(CCc3ccccc3OC)nc2n(CCCCP(=O)(O)O)c1=O [B-7, (4-(8-(2-Methoxyphenethyl)-2,6-dioxo-1-(prop-2-yn-1-yl)-1,2,6,7-tetrahydro-3H-purin-3-yl)butyl)phosphonic acid] |
| 82 | 30.6 ± 3.1 | 100 | 14500 ± 2400 | 425 ± 187 | 113 | 87 | 71.4 ± 19.3 | 255 to 257 | – | – | – | – | – | – | – | C#CCn1c(=O)c2[nH]c(CCc3ccc(OC)cc3OC)nc2n(CCCCP(=O)(O)O)c1=O [B-10, (4-(8-(2,4-Dimethoxyphenethyl)-2,6-dioxo-1-(prop-2-yn-1-yl)-1,2,6,7-tetrahydro-3H-purin-3-yl)butyl)phosphonic acid] |
| 74 | 500 ± 113 | – | > 10000 | 9450 ± 3230 | 99 | 81 | 735 ± 131 | 256 to 260 | 3 ± 15 | > 10000 | – | – | – | – | – | CCn1c(=O)c2[nH]c(CCc3ccc(F)cc3)nc2n(CCCCP(=O)(O)O)c1=O [B-14, (4-(1-Ethyl-8-(4-fluorophenethyl)-2,6-dioxo-1,2,6,7-tetrahydro-3H-purin-3-yl)butyl)phosphonic acid] |
| – | – | – | – | – | – | – | – | 152 to 154 | – | – | 111 | 0.441 ± 0.157 | 97 | 0.0424 ± 0.015 | – | C#CCn1c(=O)c2c(nc(CCc3ccccc3C)n2CC)n(CCCCP(=O)(O)O)c1=O [B-32, (4-(7-Ethyl-8-(2-methylphenethyl)-2,6-dioxo-1-(prop-2-yn-1-yl)-1,2,6,7-tetrahydro-3H-purin-3-yl)butyl)phosphonic acid] |
| – | – | – | – | – | – | – | – | 119 to 121 | – | – | 23 | 143 ± 66 | 76 | 0.773 ± 0.106 | 16.1 ± 8.4 | C#CCn1c(=O)c2c(nc(CCc3ccc(I)cc3)n2CC2CCCC2)n(CCCCP(=O)(O)O)c1=O [B-39, (4-(7-(cyclopentylmethyl)-8-(4-iodophenethyl)-2,6-dioxo-1-(prop-2-yn-1-yl)-1,2,6,7-tetrahydro-3H-purin-3-yl)butyl)phosphonic acid] |
| – | – | – | – | – | – | – | – | 101 to 102 | – | – | 8 | 23.7 ± 0.7 | 77 | 18.3 ± 6.1 | 13 ± 1.4 | C#CCn1c(=O)c2c(nc(CCc3ccc(C(F)(F)F)cc3)n2CC2CCCC2)n(CCCCP(=O)(O)O)c1=O [B-40, (4-(7-(cyclopentylmethyl)-2,6-dioxo-1-(prop-2-yn-1-yl)-8-(4-(trifluoromethyl)phenethyl)-1,2,6,7-tetrahydro-3H-purin-3-yl)butyl)phosphonic acid] |
| – | – | – | – | – | – | – | – | 111 to 113 | – | – | 57 | 51.4 ± 8.5 | 96 | 3.67 ± 1.21 | – | C#CCn1c(=O)c2c(nc(CCc3ccc(OC)cc3)n2CC2CCCC2)n(CCCCP(=O)(O)O)c1=O [B-41, (4-(7-(cyclopentylmethyl)-8-(4-methoxyphenethyl)-2,6-dioxo-1-(prop-2-yn-1-yl)-1,2,6,7-tetra-hydro-3H-purin-3-yl)butyl)phosphonic acid] |
| – | – | – | – | – | – | – | – | 125 to 127 | – | – | – | > 10000 | 53 | 10.7 ± 7.1 | – | C#CCn1c(=O)c2c(nc(CCc3ccc(C(C)C)cc3)n2CC2CCCC2)n(CCCCP(=O)(O)O)c1=O [B-43, (4-(7-(cyclopentylmethyl)-8-(4-isopropylphenethyl)-2,6-dioxo-1-(prop-2-yn-1-yl)-1,2,6,7-tetra-hydro-3H-purin-3-yl)butyl)phosphonic acid] |
| – | – | – | – | – | – | – | – | 156 to 158 | – | – | – | > 10000 | 43 | 2.12 ± 0.85 | 0.0873 ± 0.012 | C#CCn1c(=O)c2c(nc(CCc3ccc(-c4ccccc4)cc3)n2CC2CCCC2)n(CCCCP(=O)(O)O)c1=O [B-44, (4-(8-(2-([1,1′-biphenyl]-4-yl)ethyl)-7-(cyclopentylmethyl)-2,6-dioxo-1-(prop-2-yn-1-yl)-1,2,6,7-tetrahydro-3H-purin-3-yl)butyl)phosphonic acid] |
| – | – | – | – | – | – | – | – | 88 to 90 | – | – | 154 | 0.984 ± 0.054 | 102 | 0.0705 ± 0.0198 | – | C#CCn1c(=O)c2c(nc(CCc3ccccc3C)n2C(C)C)n(CCCCP(=O)(O)O)c1=O [B-48, (4-(7-Isopropyl-8-(2-methylphenethyl)-2,6-dioxo-1-(prop-2-yn-1-yl)-1,2,6,7-tetrahydro-3H-purin-3-yl)butyl)phosphonic acid] |
| – | – | – | – | – | – | – | – | 105 to 107 | – | – | 119 | 0.491 ± 0.192 | 103 | 0.0751 ± 0.0229 | – | C#CCn1c(=O)c2c(nc(CCc3ccccc3Br)n2C(C)CC)n(CCCCP(=O)(O)O)c1=O (stereo not drawn) [B-49, (4-(8-(2-bromophenethyl)-7-(sec-butyl)-2,6-dioxo-1-(prop-2-yn-1-yl)-1,2,6,7-tetrahydro-3H-purin-3-yl)butyl)phosphonic acid] |
| – | – | – | – | – | – | – | – | 192 to 194 | – | – | – | > 10000 | – | > 100000 | – | C#CCn1c(=O)c2[nH]c(CCc3ccccc3Br)nc2n(CCCCCC(=O)O)c1=O [G-3, 6-(8-(2-Bromophenethyl)-2,6-dioxo-1-(prop-2-yn-1-yl)-1,2,6,7-tetrahydro-3H-purin-3-yl) hexanoic acid] |
